Data reported in patent publication US6388127B1, “Process for preparing cyclic thioamides” (Pfizer INC, priority 1999, dated 2002).

melting point: 81 to 83 °C
Compound: O=C1CSCCN1c1ccc(Cl)c(Cl)c1 [Example 1, 4-(3,4-Dichloro-phenyl)-thiomorpholin-3-one]
